# Data reported in publication PMC10126473 (Frontiers in Pharmacology, 2023).
# Tests used:
# [1] = Mouse PK and tissue distribution study (non-compartmental analysis); settings: mice; for Tmax / half-life: male, C57BL/6, mouse, in vivo, po; for Tmax: Tmax Obs; for half-life: t1/2 Obs
# Experimental: The in-life study (Animal Study Protocol Number: NIH ORS-51) was conducted at the NIH Animal Facility by the Division of Veterinary Resources (DVR, Bethesda, MD). In this study, 25–35 g male C57BL/6 mice (Charles River Laboratories, Frederick, MD) were used. For the IV groups, 66 mice (33 mice per dosing group, 3 mice per timepoint) were used for a single bolus IV dose of 3 or 10 mg/kg of PDN via tail vein injection. […] The IV and PO doses were selected to obtain a complete concentration profile in plasma and tissues, based on a preliminary study. Animals were not fasted in this study. […] All dosing solutions were freshly prepared on the day of dosing. At designated time points, blood samples were collected, and mice were euthanized with CO2 in accordance with NIH ARAC Guidelines after blood collection. The death was ensured by cervical dislocation or transthoracic puncture. Lung, liver, adipose, brain, heart, small intestine, kidney, skeletal muscle, and spleen samples were obtained from mice. […] Tissue samples were rinsed with cold saline, dried on filtrate paper, weighed, and snap frozen by placing into dry ice after collection. All samples were stored at −80°C until the analysis. All blood samples were collected in K2EDTA tubes and centrifuged at 3000 g for 10 min at 4°C to obtain plasma. Plasma samples were transferred to tubes preloaded with NaF (final concentration at 5 mM in 200 µL plasma) and stored at −80°C until analysis.
# For fat tissue, an additional 3-fold volume of acetonitrile was added to the water homogenate and was vortexed in a shaker for another 30 min.
# A 10 μ aliquot of samples, blank controls (blank plasma or tissue homogenates), quality controls (QC), and standards were added into 200 μ acetonitrile solution with 100 ng/mL tolbutamide (internal standard, IS). All samples were then thoroughly shaken for 5 min to precipitate proteins. The samples were centrifuged at 3000 rpm and 4°C for 30 min. The supernatant was injected for UPLC-MS/MS analysis.
# The mobile phase consisted of 0.1% formic acid in water (A) and 0.1% formic acid in acetonitrile (B), the flow rate was 600 μL/min. […] All analyses were carried out using a Waters Acquity I-Class UPLC interfaced with a Waters Xevo TQ-S mass spectrometer. The mass spectrometer multiple reaction monitoring (MRM) experiment was operated with an ESI source at negative mode with spray voltage of 1 kV, and temperature of 600°C. Both Q1 and Q3 were set at unit resolution. […] The correlation coefficients of the calibration curves were all greater than 0.99. […] The linear range, precision and accuracy of QCs in various tissues and plasma are shown in Supplementary Table S1 and Supplementary Table S2.
# The area under the concentration vs. time curve (AUC) was calculated using the linear trapezoidal method. The terminal rate constant (λ) was obtained from the slope of at least three data points of the apparent terminal phase of the log linear concentration vs. time curve. AUC0–∞ was estimated as the sum of the AUC0–t (where t is the time of the last measurable concentration) and Ct/λ. […] Bioavailability (F) was calculated using ratios of dose-normalized AUC of PO and IV administration.
# [2] = tested on: SARS-CoV-2; design: method as in Huang et al., 2022; settings: cytopathic effect assay and cytotoxicity counter screen; ref Huang et al., 2022; cited from earlier work
# [3] = 10 mg/kg, PO 10 mg/kg PDN, heart
# [4] = 10 mg/kg, PO 10 mg/kg PDN, intestine
# [5] = 10 mg/kg, PO 10 mg/kg PDN, kidney
# [6] = 10 mg/kg, PO 10 mg/kg PDN, liver
# [7] = 10 mg/kg, PO 10 mg/kg PDN, lung
# [8] = 10 mg/kg, PO 10 mg/kg PDN, muscle
# [9] = 10 mg/kg, PO 10 mg/kg PDN, plasma
# [10] = 10 mg/kg, PO 10 mg/kg PDN, spleen
compound,measurement,setting,value
O=C(Nc1ccc([N+](=O)[O-])cc1Cl)c1cc(Cl)ccc1OC(=O)N1CCNCC1 [PDN],Tmax,[1]; [3],1.5 h
same,Tmax,[1]; [4],0.167 h
same,Tmax,[1]; [5],1.5 h
same,Tmax,[1]; [6],1.5 h
same,Tmax,[1]; [7],1.5 h
same,Tmax,[1]; [8],1.5 h
same,Tmax,[1]; [9],1.5 h
same,Tmax,[1]; [10],1.5 h
same,half-life,"[1]; 10 mg/kg, PO 10 mg/kg PDN, adipose",3.48 h
same,half-life,"[1]; 10 mg/kg, PO 10 mg/kg PDN, brain",2.45 h
same,half-life,[1]; [3],2.16 h
same,half-life,[1]; [4],1.79 h
same,half-life,[1]; [5],2.99 h
same,half-life,[1]; [6],2.36 h
same,half-life,[1]; [7],3.29 h
same,half-life,[1]; [8],2.83 h
same,half-life,[1]; [9],~3.2 h
same,half-life,[1]; [10],3.16 h
same,AUC0-∞ Obs,"[1]; IV 3 mg/kg PDN, adipose",990 (169) h*ng/g
same,AUC0-∞ Obs,"[1]; IV 3 mg/kg PDN, brain",1024 (124) h*ng/g
same,AUC0-∞ Obs,"[1]; IV 3 mg/kg PDN, heart",5676 (481) h*ng/g
same,AUC0-∞ Obs,"[1]; IV 3 mg/kg PDN, intestine",3222 (749) h*ng/g
same,AUC0-∞ Obs,"[1]; IV 3 mg/kg PDN, kidney",9833 (1080) h*ng/g
same,AUC0-∞ Obs,"[1]; IV 3 mg/kg PDN, lung",53071 (4993) h*ng/g
same,AUC0-∞ Obs,"[1]; IV 3 mg/kg PDN, muscle",1828 (221) h*ng/g
same,AUC0-∞ Obs,"[1]; IV 3 mg/kg PDN, spleen",16808 (1242) h*ng/g
same,AUC0-∞ Obs,"[1]; IV 10 mg/kg PDN, brain",5622 (1331) h*ng/g
same,AUC0-∞ Obs,"[1]; IV 10 mg/kg PDN, heart",31647 (6073) h*ng/g
same,AUC0-∞ Obs,"[1]; IV 10 mg/kg PDN, intestine",14586 (1295) h*ng/g
same,AUC0-∞ Obs,"[1]; IV 10 mg/kg PDN, kidney",62371 (6713) h*ng/g
same,AUC0-∞ Obs,"[1]; IV 10 mg/kg PDN, liver",883 (323) h*ng/g
same,AUC0-∞ Obs,"[1]; IV 10 mg/kg PDN, lung",173216 (21722) h*ng/g
same,AUC0-∞ Obs,"[1]; IV 10 mg/kg PDN, muscle",10301 (2999) h*ng/g
same,AUC0-∞ Obs,"[1]; IV 10 mg/kg PDN, spleen",63505 (10129) h*ng/g
same,AUC0-∞ Obs,"[1]; PO 10 mg/kg PDN, adipose",2788 (299) h*ng/g
same,AUC0-∞ Obs,"[1]; PO 10 mg/kg PDN, brain",2741 (488) h*ng/g
same,AUC0-∞ Obs,"[1]; PO 10 mg/kg PDN, heart",10680 (1787) h*ng/g
same,AUC0-∞ Obs,"[1]; PO 10 mg/kg PDN, intestine",37739 (6003) h*ng/g
same,AUC0-∞ Obs,"[1]; PO 10 mg/kg PDN, kidney",40372 (8592) h*ng/g
same,AUC0-∞ Obs,"[1]; PO 10 mg/kg PDN, liver",591 (176) h*ng/g
same,AUC0-∞ Obs,"[1]; PO 10 mg/kg PDN, lung",123875 (23366) h*ng/g
same,AUC0-∞ Obs,"[1]; PO 10 mg/kg PDN, muscle",4005 (814) h*ng/g
same,AUC0-∞ Obs,"[1]; PO 10 mg/kg PDN, spleen",45737 (9727) h*ng/g
same,F (bioavailability) Obs,"[1]; PO 10 mg/kg PDN, 10 mg/kg",85.8%
same,in vitro activity against SARS-CoV-2,[2],showed in vitro activity against SARS-CoV-2
